Reference: patent US20250186391A1, “ORAL COMPLEMENT FACTOR D INHIBITORS” (BioCryst Pharmaceuticals, Inc., priority 2019, published 2025)

biological target: Factor D (Homo sapiens (Human), UniProt P00746); experiment: Factor D esterolytic assay; assay type: biochemical; settings: Z-Lys-SBzl substrate, 100 mM HEPES, 500 mM NaCl, pH 7.5, 10% DMSO; tested a minimum of three times; read-out: Measured Ki (IC50) Value for Compounds: IC50
In short: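 Chromogenic thioesterase read-out: Z-Lys-SBzl (1.29 mM) hydrolysis by human Factor D, thiol detected with DTNB at 405 nm (690 nm background subtracted) for 600 s. Run in 100 mM HEPES, 500 mM NaCl, pH 7.5, 10% DMSO, substrate added immediately or after room-temperature preincubation. IC50 from percent inhibition versus enzyme alone, n≥3.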

Chain of Factor D (P00746 26-253): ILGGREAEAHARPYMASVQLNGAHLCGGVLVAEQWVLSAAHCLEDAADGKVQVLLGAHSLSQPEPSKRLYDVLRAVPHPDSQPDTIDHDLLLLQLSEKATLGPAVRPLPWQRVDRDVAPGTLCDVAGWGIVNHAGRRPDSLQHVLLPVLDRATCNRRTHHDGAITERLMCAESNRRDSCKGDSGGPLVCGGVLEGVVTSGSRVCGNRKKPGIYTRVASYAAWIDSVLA

SMILES	IC50 [nM]
CCOC(=O)Cc1ccccc1OCc1cc2c(-c3cccc(CN)c3)cccc2o1 [Compound 25c, ethyl 2-(2-((4-(3-(aminomethyl)phenyl)benzofuran-2-yl)methoxy)phenyl)acetate]	> 10000
NCc1cccc(-c2cc(CN3CCOCC3)c3occ(COc4ccccc4CC(=O)O)c3c2)c1 [Compound 79h, 2-(2-((5-(3-(aminomethyl)phenyl)-7-(morpholinomethyl)benzofuran-3-yl)methoxy)phenyl)acetic acid]	< 1000
NCc1cccc(-c2cc(Oc3ccccc3)c3occ(COc4ccccc4CC(=O)O)c3c2)c1 [Compound 194f, 2-(2-((5-(3-(aminomethyl)phenyl)-7-phenoxybenzofuran-3-yl)methoxy)phenyl)acetic acid]	< 1000
NCc1cccc(-c2cc(/C=C/C3CC3)c3occ(COc4ccccc4CC(=O)O)c3c2)c1 [Compound 132d, (E)-2-(2-((5-(3-(aminomethyl)phenyl)-7-(2-cyclopropylvinyl)benzofuran-3-yl)methoxy)phenyl)acetic acid]	< 1000
NCc1cccc(-c2cc(CCC3CC3)c3occ(COc4ccccc4CC(=O)O)c3c2)c1 [Compound 170b, 2-(2-((5-(3-(aminomethyl)phenyl)-7-(2-cyclopropylethyl)benzofuran-3-yl)methoxy)phenyl)acetic acid]	< 1000
COc1cccc(OCc2coc3ccc(-c4cccc(CN)c4)cc23)c1CC(=O)O [Compound 109d, 2-(2-((5-(3-(aminomethyl)phenyl)benzofuran-3-yl)methoxy)-6-methoxyphenyl)acetic acid]	1000 to 10000
CC(C)(C)OC(=O)Nc1cccc(CC(=O)O)c1OCc1coc2ccc(-c3cccc(CN)c3)cc12 [Compound 91a, 2-(2-((5-(3-(aminomethyl)phenyl)benzofuran-3-yl)methoxy)-3-((tert-butoxycarbonyl)amino)phenyl)acetic acid]	< 1000
Cn1nc2ccc(-c3cccc(CN)c3)cc2c1COc1ccccc1CC(=O)O [Compound 184e, 2-(2-((5-(3-(aminomethyl)phenyl)-2-methyl-2H-indazol-3-yl)methoxy)phenyl)acetic acid]	< 1000
COc1ccc(CC(=O)O)c(OCc2c(C)oc3ccc(-c4cccc([C@H](N)CO)c4)cc23)c1 [Compound 241c, (S)-2-(2-((5-(3-(1-amino-2-hydroxyethyl)phenyl)-2-methylbenzofuran-3-yl)methoxy)-4-methoxyphenyl)acetic acid]	< 1000

The next lines start with the values.

IC50 [nM]	SMILES
1000 to 10000	COc1c(-c2cc3c(COc4ccccc4CC(=O)O)cccc3o2)ccnc1CN [Compound 329d, 2-(2-((2-(2-(aminomethyl)-3-methoxypyridin-4-yl)benzofuran-4-yl)methoxy)phenyl)acetic acid]
< 1000	CC(C)n1nc(COc2ccccc2CC(=O)O)c2cc(-c3cc(O)cc(CN)c3)ccc21 [Compound 243g, 2-(2-((5-(3-(aminomethyl)-5-hydroxyphenyl)-1-isopropyl-1H-indazol-3-yl)methoxy)phenyl)acetic acid]
< 1000	COc1ccc(CC(=O)O)c(OCc2coc3c(NCC4CC4)cc(-c4cccc(CN)c4)cc23)c1 [Compound 276e, 2-(2-((5-(3-(aminomethyl)phenyl)-7-((cyclopropylmethyl)amino)benzofuran-3-yl)methoxy)-4-methoxyphenyl)acetic acid]
> 10000	CC(C)n1nc(COc2ccccc2CC(=O)O)c2cc(-c3cc(CN)cc(C4CCOCC4)c3)ccc21 [Compound 332e, 2-(2-((5-(3-(aminomethyl)-5-(tetrahydro-2H-pyran-4-yl)phenyl)-1-isopropyl-1H-indazol-3-yl)methoxy)phenyl)acetic acid]
< 1000	CN(Cc1cc(-c2cccc(CN)c2)cc2c(COc3ccccc3CC(=O)O)coc12)CC1CC1 [Compound 263e, 2-(2-((5-(3-(aminomethyl)phenyl)-7-(((cyclopropylmethyl)(methyl)amino)methyl)benzofuran-3-yl)methoxy)phenyl)acetic acid]
